Laboratory results reported in patent publication US20250134855A1, “CO[…] AND METHODS OF USING SAME” (LYKOS THERAPEUTICS, INC., priority 2022, published 2025).

Test: Population PK (PPK) model of MDMA and MDA (NONMEM)
Design: species or system human
Excerpt: This example describes the methodology that was used to characterize the PPK of MDMA and its active minor metabolite MDA and the related model-based simulations.
For the PPK analysis, an individual was defined as evaluable if the following criteria were satisfied: • 1. Received at least one dose of MDMA • 2. Had at least one measurable MDMA observation with associated sampling time and dosing information for the MDMA modeling • 3. Had at least one measurable paired MDMA/MDA observation with associated sampling time and dosing information for the MDMA modeling
The evaluation of the impact of covariates on the MDMA and MDA PPK models focused on the most clinically relevant covariates. Prior to covariate selection, a correlation matrix was generated to determine the correlation between covariates. Only the most significant covariate among the highly correlated covariates was included in the model.
Software Nonlinear mixed-effects modeling software (NONMEM®; version 7.4; ICON, Hanover, MD, US), a software package for nonlinear mixed-effects analysis was used for the PPK modeling. R (version 4.0.2) was used for simulations (e.g., to derive exposure measures for subsequent model application analysis).
Algorithms for the Development of the Population PK Model Plasma concentration-time data was analyzed using a nonlinear mixed effects modeling approach. The first-order conditional estimation method of NONMEM with interaction (FOCE INTER) was used for PPK model development.
One-, and two-compartment models were evaluated for MDMA based on the shape of the observed concentration-time profile. MDMA absorption was evaluated in two ways: as a first-order process and as a sequential zero-order process followed by first-order absorption. MDA was developed as a sequential model, with one-, two, and three-compartment models tested.
They were modeled assuming a log-normal distribution as given by the following expression: θki=θk×e^ηk^i where θki denotes the k^th parameter value for the i^th patient, θk denotes the typical parameter value, and ηki denotes the inter-individual random effect for the i^th patient—assumed to have mean of 0 (zero) and variance ωk^2. Collectively, the vector of random effects (across the parameters indexed by k) has the covariance matrix Ω. Covariance matrix structures including diagonal and blocked diagonal structures were evaluated after the completion of covariate model building. The residual error structure was assumed to follow an additive, proportional, or combined additive and proportional error model described by the following:
The subset of covariate-parameter relationships to be included was selected based on exploratory graphical analysis, mechanistic plausibility, and scientific and clinical interest. […] This was either the covariate with the strongest influence as determined by exploratory graphical analysis or the variable that is most meaningful from a clinical, biological, or practical perspective. Continuous covariates were preferred over categorized covariates with the same meaning.
However, graphical covariate analysis can be relied on only if n-shrinkage in the respective population model parameters is low. Covariates that fulfilled the above criteria were tested in a stepwise process. The covariate selection was performed using a forward addition process followed by backward elimination. The likelihood ratio test was used to evaluate the significance of incorporating or removing fixed effects into the population model based on significance levels that were set a priori. For forward addition and backward elimination, significance levels of 0.01 and 0.001 were employed, respectively. The improvement of the model relative to the base model was compared after each of the covariates was added univariately, and the model with the largest improvement was kept for the next evaluation step, given that there was an overall statistical significance supporting the inclusion of the respective covariate. […]

[1] = MPXF (N =16), population parameter, IIV not included
[2] = 5th percentile of body weight (52 kg)
[3] = 95th percentile of body weight (97 kg)

CC(N)Cc1ccc2c(c1)OCO2 (stereo not shown) [MDA, 3,4-methylenedioxyamphetamine]
MDA Clearance, CLM, post hoc Geo. mean (MPXF (N =16)): 29.7 L/h | MDA Intercompartmental Clearance, QM, post hoc Geo. mean (MPXF (N =16)): 68.4 L/h | MDA Central Volume, V3 [1]: 20.8 L | CLM, base model estimate (base MDA model): 35.6 L/h | IIV on CLM (base MDA model): 37.7 | IIV on QM (base MDA model): 55.8 | IIV on V4 (base MDA model): 43.5 | V3, base model estimate (base MDA model): 19.4 L | lower V4 (MDA peripheral volume of distribution) (female compared to male subjects): 18% | Body weight effect on CLM, Bootstrap median (final MDA model): 0.585 | Body weight effect on CLM, estimate (final MDA model): 0.580 | Body weight effect on QM, Bootstrap median (final MDA model): 1.02 | Body weight effect on QM, estimate (final MDA model): 1.00 | CLM, Bootstrap median (final MDA model): 83.9 L/h | CLM, final model estimate (final MDA model): 79.6 L/h | Sex effect on V4, Bootstrap median (final MDA model): −0.18 | V4, Bootstrap median (final MDA model): 213 L | V4, final model estimate (final MDA model): 213 L

CNC(C)Cc1ccc2c(c1)OCO2 (stereo not shown) [MDMA, 3,4-methylenedioxymethamphetamine]
higher MDMA AUC0-44 relative to reference individual [2]: 30% | higher MDMA Cmax relative to reference individual [2]: 30% | lower MDMA AUC0-44 relative to reference individual [3]: 28% | lower MDMA Cmax relative to reference individual [3]: 25% | Cmax MDMA, post hoc Geo. mean (MPKF Fasted 120 mg (N = 16)): 246.0 ng/mL | Cmax MDMA, post hoc Geo. mean (MPKF Fed 120 mg (N = 14)): 197.3 ng/mL | Post Hoc Absorption Rate, Geo. mean (Geo. CV %) (MPKF Fed (N = 14), high fat meal): 0.6 (50.2) 1/h | Post Hoc Absorption Rate, Geo. mean (Geo. CV %) (MPKT Fasted (N = 16)): 3.5 (47.0) 1/h | Duration of zero order absorption, D1, post hoc Geo. mean (MPXF (N =16)): 0.4 h | Half-life MDMA, t½, post hoc Geo. mean (MPXF (N =16)): 8.7 h | MDMA Apparent Volume of Distribution, V, post hoc Geo. mean (MPXF (N =16)): 368.3 L | Lag time, ALAG [1]: 0.3 h | time to complete clearance (5 half-lives) (assumed): 38.5 to 43.5 h | ALAG1, base model estimate (base MDMA model): 0.312 h | CL/F, base model estimate (base MDMA model): 38.3 L/h | D1, base model estimate (base MDMA model): 0.242 h | IIV on D1 (base MDMA model): 159 | IIV on Ka (base MDMA model): 55.9 | IIV on V2/F (base MDMA model): 28.5 | V2/F, base model estimate (base MDMA model): 444 L | ka, base model estimate (base MDMA model): 1.14 h⁻¹ | ALAG1, Bootstrap median (final MDMA model): 0.323 h | ALAG1, final model estimate (final MDMA model): 0.322 h | Body weight effect on V2/F, Bootstrap median (final MDMA model): 0.884 | Body weight effect on V2/F, estimate (final MDMA model): 0.885 | CL/F, Bootstrap median (final MDMA model): 41.8 L/h | CL/F, final model estimate (final MDMA model): 41.5 L/h | D1, Bootstrap median (final MDMA model): 0.271 h | D1, final model estimate (final MDMA model): 0.304 h | Fasted status effect on KA, Bootstrap median (final MDMA model): 1.08 | Fasted status effect on KA, estimate (final MDMA model): 1.93 | Fed status effect on KA, Bootstrap median (final MDMA model): −0.496 | Fed status effect on KA, estimate (final MDMA model): −0.484 | IIV on D1 (final MDMA model): 153 | IIV on KA (final MDMA model): 60.2 | IIV on V2/F (final MDMA model): 19.9 | Study effect on V2/F, Bootstrap median (final MDMA model): −0.267 | Study effect on V2/F, estimate (final MDMA model): −0.263 | V2/F, Bootstrap median (final MDMA model): 461 L | V2/F, final model estimate (final MDMA model): 462 L | ka, Bootstrap median (final MDMA model): 1.17 h⁻¹ | ka, final model estimate (final MDMA model): 1.17 h⁻¹ | lower Ka (subjects fed a high fat diet): 49%
